The values that follow come from US5663148A, “Anaphylatoxin receptor ligands containing lipophilic residues” (Abbott Laboratories, priority 1994, dated 1997).

*1 amine or outer side, *2 acyl side, *3 side chain or, on linkers, in order; H or OH if unused. Where a SMILES comes first, the peptide text is derived from it. [ ]: non-standard residue; d: D form. The star is where a group is joined. X5 = O=C([C@H](CC1CCCCC1)N(Cc1ccccc1)[*:1])[*:2]; Pentanoyl(5-Ph) = O=C(CCCCc1ccccc1)*; d(hhPhe) = N[C@H](CCCc1ccccc1)C(=O)O; hhPhe = N[C@@H](CCCc1ccccc1)C(=O)O; Cha = N[C@@H](CC1CCCCC1)C(=O)O; PhAc = O=C(Cc1ccccc1)*; Ahp = NCCCCCCC(=O)O; X8 = c1ccc(CCC*)cc1

This experiment has as its target T1, C5a receptor (Homo sapiens, UniProt P21730).
T1 construct: from tissue; host or cells: polymorphonuclear leukocyte (PMNL) membrane fragments
T1 sequence (P21730 1-350): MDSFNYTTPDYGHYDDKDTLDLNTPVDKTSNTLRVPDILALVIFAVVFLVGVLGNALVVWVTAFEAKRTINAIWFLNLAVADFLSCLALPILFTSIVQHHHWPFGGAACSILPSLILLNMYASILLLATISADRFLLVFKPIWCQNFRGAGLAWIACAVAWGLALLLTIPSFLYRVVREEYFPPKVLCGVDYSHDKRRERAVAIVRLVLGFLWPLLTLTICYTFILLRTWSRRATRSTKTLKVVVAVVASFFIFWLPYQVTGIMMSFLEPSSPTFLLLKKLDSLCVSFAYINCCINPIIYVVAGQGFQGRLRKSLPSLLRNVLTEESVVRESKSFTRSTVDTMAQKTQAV
Nature of the experiment: Anaphylatoxin (C5a) receptor binding Ki determination, 125I-C5a on PMNL membrane fragments. The conditions noted are these: read-out: Ki (In vitro C5a Receptor Binding Potency). Here is the method: The membrane-bound radiolabeled C5a was separated from the free radiolabeled C5a by filtration, and the recovered gamma radioactivity was measured. […] Free and membrane-bound ligand were separated by filtration.
Take `CC(C)C[C@H](NC(=O)CNC(=O)[C@H](CC1CCCCC1)N(Cc1ccccc1)C(=O)CCCCCCN)C(=O)N[C@H](CCCc1ccccc1)C(=O)N[C@@H](CCCNC(=N)N)C(=O)O` [Example 64, N-(7-Aminoheptanoyl)-{(2S)-2-Amino-3-cyclohexylpropanoyl}(N-Benzyl)-Glycyl-Leucyl-{(R)-2-Amino-5-phenylpentanoyl}-Arginyl-OH] (H-[Ahp][X5]GL[d(hhPhe)]R-OH): the inhibition constant (Ki) was 0.47 µM.

Turning to `CC(C)C[C@H](NC(=O)[C@H](C)NC(=O)[C@H](CC1CCCCC1)NC(=O)[C@@H]1CCCN1C(=O)[C@H](C)NC(=O)[C@@H](N)Cc1ccccc1)C(=O)NC(CCCc1ccccc1)C(=O)N[C@@H](CCCNC(=N)N)C(=O)O` (mixture of isomers) [Example 143, H-Phenylalanyl-Alanyl-Prolyl-{(2S)-2-Amino-3-cyclohexylpropanoyl}-Alanyl-Leucyl-{(±)-2-Amino-5-phenylpentanoyl}-Arginyl-OH], the Ki was determined as 0.054 µM.

For the compound `CC(C)C[C@H](NC(=O)[C@H](C)NC(=O)[C@H](CC1CCCCC1)NC(=O)[C@@H]1CCCN1C(=O)[C@H](CCCCN)NC(=O)CN)C(=O)N[C@H](CSCCCc1ccccc1)C(=O)N[C@@H](CCCNC(=N)N)C(=O)O` [Example 22, H-Glycyl-Lysyl-Prolyl-{(2S)-2-Amino-3-cyclohexylpropanoyl}-Alanyl-Leucyl-DCysteinyl(S-3-phenylpropyl)-Arginyl-OH] (H-GKP[Cha]AL[dC](X8)R-OH), the Ki is 4.7 µM.

Turning to `CC(C)C[C@H](NC(=O)[C@H](C)NC(=O)[C@H](CC1CCCCC1)NC(=O)[C@@H]1CCCN1C(=O)[C@@H](N)CCCCN)C(=O)NC(CCCc1ccccc1)C(=O)N[C@@H](CCCNC(=N)N)C(=O)O` (single isomer, unassigned) [Example 68], the Ki was 14 µM.

As for `CC(C)C[C@H](NC(=O)CNC(=O)[C@H](CC1CCCCC1)NC(=O)Cc1ccccc1)C(=O)N[C@H](CCCc1ccccc1)C(=O)N[C@@H](CCCNC(=N)N)C(=O)O` [Example 47, N-Phenylacetyl-{(2S)-2-Amino-3-cyclohexylpropanoyl}-Glycyl-Leucyl-{(R)-2-Amino-5-phenylpentanoyl}-Arginyl-OH] (PhAc-[Cha]GL[d(hhPhe)]R-OH), the inhibitory constant (Ki) is 1.1 µM.

As for `CC(C)C[C@H](NC(=O)CNC(=O)[C@H](CC1CCCCC1)N(C)C(=O)CCCCCCN)C(=O)NC(CCCc1ccccc1)C(=O)N[C@@H](CCCNC(=N)N)C(=O)O` (single isomer, unassigned) [Example 76], the inhibitory constant (Ki) came to 1.5 µM.

`CC(C)C[C@H](NC(=O)[C@@H]1CCCN1C(=O)[C@H](CC1CCCCC1)NC(=O)CNC(=O)CCCCCN)C(=O)NC(CCCc1ccccc1)C(=O)N[C@@H](CCCNC(=N)N)C(=O)O` (single isomer, unassigned) [Example 111]: the inhibition constant Ki came to 1 µM.

For `CC(C)C[C@H](NC(=O)CNC(=O)[C@H](CC1CCCCC1)NC(=O)[C@@H](N)CCCCN)C(=O)NC(CCCc1ccccc1)C(=O)N[C@@H](CCCNC(=N)N)C(=O)O` (single isomer, unassigned) [Example 41, H-Lysyl-{(2S)-2-Amino-3-cyclohexylpropanoyl}-Glycyl-Leucyl-{(R/S)-2-Amino-5-phenylpentanoyl}-Arginyl-OH], the inhibition constant (Ki) is 25.4 µM.

Take `CC(C)[C@H](NC(=O)CNC(=O)[C@H](CC1CCCCC1)NC(=O)CCCCCN)C(=O)NC(CCCc1ccccc1)C(=O)N[C@@H](CCCNC(=N)N)C(=O)O` (single isomer, unassigned) [Example 102, N-(6-Aminohexanoyl)-{(2S)-2-Amino-3-cyclohexylpropanoyl}-Glycyl-Valyl-{(FFS)-2-Amino-5-phenylpentanoyl}-Arginyl-OH]: the Ki was determined as 21.7 µM.

As for `CN[C@@H](Cc1ccccc1)C(=O)N[C@@H](CCCCN)C(=O)N1CCC[C@H]1C(=O)N[C@@H](CC1CCCCC1)C(=O)N[C@@H](C)C(=O)N[C@@H](CC(C)C)C(=O)NC(CCCc1ccccc1)C(=O)N[C@@H](CCCNC(=N)N)C(=O)O` (single isomer, unassigned) [Example 128], the inhibition constant Ki was determined as 0.027 µM.

With `CC(C)C[C@H](NC(=O)CNC(=O)[C@H](CC1CCCCC1)NC(=O)CCN)C(=O)NC(CCCc1ccccc1)C(=O)N[C@@H](CCCNC(=N)N)C(=O)O` (single isomer, unassigned) [Example 84], the Ki stood at 3.9 µM.

Regarding `CC(C)C[C@H](NC(=O)CCCc1c[nH]c2ccccc12)C(=O)NC(CCCc1ccccc1)C(=O)N[C@@H](CCCNC(=N)N)C(=O)O` (mixture of isomers) [Example 30, N-(Indole-3-butyryl)-Leucyl-{(R/S)-2-Amino-5-phenylpentanoyl}-Arginyl-OH], the Ki turned out to be 7.1 µM.

Regarding `CC(=O)N[C@@H](CC1CCCCC1)C(=O)NCC(=O)N[C@@H](CC(C)C)C(=O)NC(CCCc1ccccc1)C(=O)N[C@@H](CCCNC(=N)N)C(=O)O` (single isomer, unassigned) [Example 45], the Ki was found to be 7.58 µM.

As to `CC(C)C[C@H](NC(=O)CNC(=O)[C@H](CC1CCCCC1)NC(=O)[C@H](N)CCCCN)C(=O)NC(CCCc1ccccc1)C(=O)N[C@@H](CCCNC(=N)N)C(=O)O` (single isomer, unassigned) [Example 56], the Ki is 26.8 µM.

In the case of `CC(C)C[C@H](NC(=O)CNC(=O)[C@H](CC1CCCCC1)NC(=O)CCCCCN)C(=O)NC(CCCc1ccccc1)C(=O)N[C@@H](CCCNC(=N)N)C(=O)O` (single isomer, unassigned) [Example 71], the inhibitory constant (Ki) was found to be 0.15 µM.

Take `CC(C)C[C@H](NC(=O)CN(C)C(=O)[C@H](CC1CCCCC1)NC(=O)CCCCCCN)C(=O)NC(CCCc1ccccc1)C(=O)N[C@@H](CCCNC(=N)N)C(=O)O` (single isomer, unassigned) [Example 61]: the inhibition constant Ki was determined as 3.2 µM.

Take `CC(C)C[C@H](NC(=O)CNC(=O)[C@H](CC1CCCCC1)NC(=O)CCCCc1ccccc1)C(=O)N[C@H](CCCc1ccccc1)C(=O)N[C@@H](CCCNC(=N)N)C(=O)O` [Example 62, N-(5-Phenylvaleryl)-{(2S)-2-Amino-3-cyclohexylpropanoyl}-Glycyl-Leucyl-{(R)-2-Amino-5-phenylpentanoyl}-Arginyl-OH] ({Pentanoyl(5-Ph)}-[Cha]GL[d(hhPhe)]R-OH): the Ki turned out to be 1.07 µM.

Regarding `CC(C)C[C@H](NC(=O)CNC(=O)[C@H](CC1CCCCC1)NC(=O)NCc1cccc(CN)c1)C(=O)NC(CCCc1ccccc1)C(=O)N[C@@H](CCCNC(=N)N)C(=O)O` (single isomer, unassigned) [Example 141], the inhibition constant Ki came out at 16 µM.

Consider `N=C(N)NCCC[C@H](NC(=O)C(CCCc1ccccc1)NC(=O)CN(Cc1ccccc1)C(=O)[C@H](CCCCN)NC(=O)[C@@H](N)Cc1ccccc1)C(=O)O` (single isomer, unassigned) [Example 94, H-Phenylalanyl-Lysyl-Glycyl(N-benzyl)-{(R/S)-2-Amino-5-phenylpentanoyl}-Arginyl-OH], for which the Ki turned out to be 5.8 µM.

With `CC(C)C[C@H](NC(=O)[C@H](CCCCN)NC(=O)[C@@H](N)CC1CCCCC1)C(=O)NC(CCCc1ccccc1)C(=O)N[C@@H](CCCNC(=N)N)C(=O)O` (single isomer, unassigned) [Example 97], the Ki amounted to 8.2 µM.

Take `CC(C)C[C@H](NC(=O)[C@H](C)NC(=O)[C@H](CC1CCCCC1)NC(=O)CCCCCN)C(=O)NC(CCCc1ccccc1)C(=O)N[C@@H](CCCNC(=N)N)C(=O)O` (single isomer, unassigned) [Example 121]: the Ki came out at 7.15 µM.

Consider `CSCC[C@H](NC(=O)[C@H](CC(=O)O)NC(=O)[C@@H](N)CCCCN)C(=O)N[C@@H](CCC(N)=O)C(=O)N[C@@H](CC(C)C)C(=O)NC(CCCc1ccccc1)C(=O)N[C@@H](CCCNC(=N)N)C(=O)O` (single isomer, unassigned) [Example 40, H-Lysyl-Aspartyl-Methionyl-Glutaminyl-Leucyl-{(R/S)-2-Amino-5-phenylpentanoyl}-Arginyl-OH], for which the Ki was determined as 1.1 µM.

Turning to `CC(C)C[C@H](NC(=O)[C@H](C)NC(=O)[C@H](CC1CCCCC1)NC(=O)[C@@H]1CCCN1C(=O)[C@H](CCCCN)NC(=O)[C@@H](N)Cc1ccccc1)C(=O)N[C@@H](CCCc1ccccc1)C(=O)N[C@@H](CCCNC(=N)N)C(=O)O` [Example 3, H-Phenylalanyl-Lysyl-Prolyl-{(2S)-2-Amino-3-cyclohexylpropanoyl}-Alanyl-Leucyl-{(S)-2-Amino-5-phenylpentanoyl}-Arginyl-OH] (H-FKP[Cha]AL[hhPhe]R-OH), the inhibition constant Ki is 0.013 µM.

Turning to `CC(C)C[C@H](NC(=O)CNC(=O)[C@H](CC1CCCCC1)N(C)C(=O)CCCCN)C(=O)NC(CCCc1ccccc1)C(=O)N[C@@H](CCCNC(=N)N)C(=O)O` (single isomer, unassigned) [Example 36], the Ki is 9.7 µM.

Consider `CC(C)C[C@H](NC(=O)CNC(=O)[C@H](CC1CCCCC1)NC(=O)CN(C)C(=O)CCCN)C(=O)NC(CCCc1ccccc1)C(=O)N[C@@H](CCCNC(=N)N)C(=O)O` (mixture of isomers) [Example 113, N-(gamma-Aminobutyryl)-Sarcrosinyl-{(2S)-2-Amino-3-cyclohexyl-propanoyl}-Glycyl-Leucyl-{(R/S)-2-Amino-5-phenylpentanoyl}-Arginyl-OH], for which the inhibitory constant (Ki) came to 0.87 µM.

For `CC(C)C[C@H](NC(=O)CNC(=O)[C@H](CC1CCCCC1)NC(=O)NCc1cccc(CN)c1)C(=O)NC(CCCc1ccccc1)C(=O)N[C@@H](CCCNC(=N)N)C(=O)O` (single isomer, unassigned) [Example 142], the Ki is 1.3 µM.

Regarding `CC(C)C[C@H](NC(=O)[C@@H](C)NC(=O)[C@H](CC1CCCCC1)NC(=O)CCCCCN)C(=O)NC(CCCc1ccccc1)C(=O)N[C@@H](CCCNC(=N)N)C(=O)O` (single isomer, unassigned) [Example 126], the inhibitory constant (Ki) worked out at 13.4 µM.

As usually defined, the Ki is a dissociation constant, usually derived from enzyme kinetics or from competition with a known ligand.
